Key:
[1] = system: A549 cells; test: PLD assay of predicted ENZO library compounds in A549 cells; settings: Homo sapiens, A549, read-out: PLD effect % in A549
[2] = system: Vero-E6 cells; test: cells; assay type: cell-based; settings: Chlorocebus sabaeus, Vero C1008, 24 h, read-out: PLD effect % in Vero-E6
[3] = system: CaCo2 cells; settings: 10 μM in-assay concentration; ENZO library; amiodarone as positive control

| SMILES | activation at 10 µM [1] [%] | activation at 10 µM [2] [%] | PLD effect % in CaCo2 [3] [%] |
| --- | --- | --- | --- |
| CN1CCN(CCCN2c3ccccc3Sc3ccc(C(F)(F)F)cc32)CC1 [Trifluoperazine] | 97.8 | 102 | 63.2 |
| CN1CCCC(n2nc(Cc3ccc(Cl)cc3)c3ccccc3c2=O)CC1 (stereo not drawn) [Azelastine] | 89.8 | 81.7 | 36.5 |
| CN(C)CCCN1c2ccccc2CCc2ccc(Cl)cc21 [Clomipramine] | 66.2 | 70.9 | 74.6 |
| CN(C)CCCN1c2ccccc2Sc2ccc(Cl)cc21 [Chlorpromazine] | 80.8 | 116 | 67.1 |
| CN1CCC[C@@H]1CCO[C@](C)(c1ccccc1)c1ccc(Cl)cc1 [Clemastine] | 50.4 | 30.1 | 6.9 |
| CN(C/C=C/c1ccccc1)Cc1cccc2ccccc12 [Naftifine] | 7.5 | -1.6 | −3.3 |
| CSc1ccc2c(c1)N(CCC1CCCCN1C)c1ccccc1S2 (stereo not drawn) [Thioridazine] | 33.5 | 44.7 | 22.7 |
